What all share (assay): NCI tumour cell line growth inhibition, 48 h
Experiment [1] relates to SF-539 CNS.
The subject of experiment [2] is SF-268 CNS.
Experiment [3] concerns KM12 colon.
Experiment [4] has as its system UO-31 renal.
The subject of experiment [5] is MALME-3M melanoma.
Experiment [6] deals with RPMI-8226 leukemia.
In experiment [7] the test system is HL-60(TB) leukemia.
The subject of experiment [8] is NCI-H522 lung.
Experiment [9] relates to SK-MEL-2 melanoma.
The test system of experiment [10] is SR leukemia.

Values joined by “and” are separate entries in the source; they are usually repeats but may differ in a detail not shown here. Identical values can stand only once.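 Interpolation was linear, between the two tested concentrations surrounding the appropriate level; five concentrations were tested over 48 hours in 96-well plates. At the GI50, growth is halved. TGI: concentration producing complete growth inhibition.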

Results on 30 molecules are retold here after PubChem BioAssay (NCI).

As to `Fc1ccc(C(OCCN2CCC3CCC(C2)N3Cc2cc3ccccc3[nH]2)c2ccc(F)cc2)cc1` (stereo not given), the TGI was 3.01 µM in experiment [1]; 4.12 µM in experiment [2]; 3.72 µM in experiment [3]; 3.42 µM in experiment [4]; 2.96 µM in experiment [5]; 3.42 µM in experiment [6]. In addition, the TGI in [7] was found to be 3.69 µM; in [8], 2.84 µM; in experiment [9] it was 3.16 µM.
With `CC12ON=C(c3ccccc3)N1C=CN1C(c3ccccc3)=NOC12` (stereo not given), the TGI in experiment [1], in [2], in [3], in [4], in experiment [5] and in [8] was > 100 µM throughout.
Turning to `CC(=O)Oc1c(OC(C)=O)c(-c2ccc(O)c(O)c2)c(O)c(O)c1-c1ccc(O)cc1`, the TGI in experiment [1], in experiment [2], in experiment [3], in experiment [4], in experiment [5] and in [6] was > 100 µM each time. The TGI was 52.6 µM and > 100 µM in [7]; 45.2 µM and 33 µM in experiment [8]; > 100 µM and 92 µM in [9]. The GI50 is 80.6 µM in experiment [2]; 51.3 µM in experiment [5]; 20 µM in [6]; 19 µM in [7]; 20.1 µM in experiment [8]; 56.5 µM in experiment [9].
Consider `O=C(CCN1CCCC1)Nc1ccc2c(NCCCc3ccccc3)c3ccccc3nc2c1`, for which the GI50 is 1240 nM in [1]; 1170 nM in experiment [3]; 1600 nM in experiment [4]; 1.58 µM in experiment [5]; 0.611 µM in [6]; 0.664 µM in experiment [8]. Moreover, the GI50 in [9] is 1.69 µM; in experiment [10] it was 467 nM. The TGI in [1] was determined as 2.55 µM; in experiment [3], 2.54 µM; in experiment [4] it was 3.16 µM; in experiment [5], 3.12 µM; in experiment [6], 3.63 µM; in experiment [8], 2.15 µM. In addition, the TGI came to 3.24 µM in experiment [9] and 2.55 µM in [10].
As to `Cc1cc2c(-c3ccccc3)cc(=O)[nH]c2cc1N`, the TGI in experiment [1], in experiment [3], in experiment [4], in experiment [6], in experiment [9] and in experiment [10] was > 100 µM in each case.
With `Nc1ncc(Cc2nc3ccccc3s2)s1`, the TGI in experiment [1], in [2], in experiment [3], in experiment [4], in experiment [5] and in [6] was > 100 µM each time. Further, the TGI in [7], in experiment [8] and in experiment [9] was > 100 µM in each case.
On to `COc1cc2c(cc1OC)C(Cl)C(c1cc(OC)c(OC)c(OC)c1)=C2Cl` (stereo not given), for which the TGI in experiment [1] stood at 26.7 µM; in experiment [2], 55.7 µM; in experiment [4], 27.1 µM; in [5], 30.6 µM; in [6], 37 µM; in [7], 44.3 µM. In addition, the TGI turned out to be 23 µM in [8] and 34.1 µM in [9].
As to `COCN1C(=O)[C@@H]2CCCN2C(=O)c2cc([N+](=O)[O-])ccc21`, the TGI in experiment [1] is > 100 µM; in experiment [2] it was > 100 µM; in experiment [3], > 100 µM; in [4] it was > 100 µM; in [5] it was > 100 µM; in experiment [8], 44.6 µM. In experiment [9], the TGI is > 100 µM.
In the case of `CC(=O)c1cn(-c2ccc(Cl)cc2)c(=O)c2c(N)n[nH]c12`, the TGI in experiment [2], in experiment [3], in experiment [4], in experiment [6], in experiment [7] and in [9] was > 100 µM each time. Moreover, the TGI in experiment [10] was > 100 µM.
Consider `C[C@@H]1OC(=O)C[C@H]2CC(=O)N(CCc3cn(S(=O)(=O)C(F)(F)F)c4ccccc34)C[C@@H]21`, for which the TGI in experiment [2], in [3], in [4], in experiment [5], in [6] and in [8] was > 100 µM throughout. Moreover, the TGI in experiment [9] was > 100 µM.
As to `CCC(=O)NCCc1c[nH]c2ccc(OC)cc12`, the TGI in experiment [1], in [2], in experiment [3], in experiment [4], in experiment [5] and in experiment [6] was > 100 µM throughout. Further, the TGI in experiment [8], in experiment [9] and in experiment [10] was > 100 µM throughout.
Regarding `CSc1c(C#N)c2n(c3ccccc3[n+]2C)c2ncccc12`, the TGI in experiment [2] is 86.9 µM; in [3], > 100 µM; in [4], 50.1 µM; in experiment [5], 40.3 µM; in experiment [6], > 100 µM; in experiment [8], 48.6 µM. Moreover, the TGI was 39.7 µM in experiment [9] and > 100 µM in experiment [10].
On to `CN1CCN(c2ccc3[nH]c(C4=C(O)c5nc(CO)n(C)c5C(=O)C4=O)nc3n2)CC1`, for which the TGI in experiment [1], in experiment [2], in [3], in experiment [4], in experiment [5] and in experiment [6] was > 100 µM each time. Besides, the TGI in experiment [7], in [8] and in experiment [9] was > 100 µM in each case.
Consider `NNC(=O)c1n[nH]nc1SSc1n[nH]nc1C(=O)NN`, for which the TGI in [1], in experiment [2], in experiment [3], in experiment [4], in experiment [7] and in experiment [8] was > 100 µM throughout. The TGI in experiment [9] is > 100 µM.
With `O=C(C1OC1c1ccc([N+](=O)[O-])cc1)C12CC3CC(CC(C3)C1)C2` (stereo not given), the TGI was found to be 28.9 µM in [1]; 40.8 µM in experiment [2]; 30.1 µM in [3]; 32.4 µM in experiment [4]; 32.4 µM in [5]; 16.1 µM in experiment [7]. Also, the TGI in [8] is 54 µM; in experiment [9] it was 39.1 µM.
For `S=C(Nc1ccc(Br)cn1)NC12CC3CC(CC(C3)C1)C2`, the TGI in experiment [1] was 33.7 µM; in experiment [2], 34.5 µM; in experiment [3], > 100 µM; in experiment [4], > 100 µM; in experiment [5] it was 58.9 µM; in [6] it was > 100 µM. The TGI in [8] is 37.5 µM; in [9], 51.7 µM; in experiment [10], > 100 µM.
As to `C=C(Cl)C(Cl)(CBr)CCC(Cl)C(C)(C)Cl` (stereo not given), the TGI in experiment [1] came out at 1.35 µM; in experiment [2], 2.92 µM; in [3], 1.94 µM; in experiment [4], 5.15 µM; in experiment [5], 22.8 µM; in experiment [6], 0.872 µM. Moreover, the figures for the TGI in experiment [8], in experiment [9] and in [10] were 23 µM, 1.84 µM and 39.4 µM, respectively.
Turning to `N#Cc1c(-c2ccc(Cl)cc2)c(C#N)c(=O)n(NS(=O)(=O)c2ccccc2)c1-c1ccccc1`, the TGI in experiment [1], in [6], in experiment [7] and in experiment [9] was > 25 µM each time.
On to `COc1cc(CC2c3cc(OC)c(OC)cc3CCN2C)c(Oc2cc3c(cc2OC)-c2c(OC)c(OC)c(OC)c4c2C(C3)N(C)CC4)cc1OC` (stereo not given), for which the TGI in experiment [1] was 25.8 µM; in experiment [2], 32.8 µM; in [3] it was 29.3 µM; in experiment [4] it was 22.1 µM; in experiment [5], 6.67 µM; in experiment [6] it was > 45.7 µM. The TGI in experiment [7] is > 100 µM; in experiment [8], 24.5 µM; in experiment [9], 28.8 µM.
In the case of `CC(C)(C)/C(O)=C\c1nc2cc(C(F)(F)F)ccc2[nH]c1=O`, the TGI in [2] was > 100 µM; in [3] it was > 100 µM; in experiment [4], > 100 µM; in experiment [5], > 100 µM; in [6], > 100 µM; in experiment [7], 19.8 µM. Also, the TGI in [8] and in experiment [9] was > 100 µM throughout.
As to `COC(=O)C1=C(O)C(C(=O)OC)[C@]2(O)[C@H](C(=O)OC)[C@H]1C[C@@H](c1ccc(OC)cc1)[C@H]2C(=O)OC` (stereo not given in full), the TGI in experiment [1] was > 100 µM; in experiment [2] it was > 100 µM; in experiment [3], 41.3 µM; in [4], 34.9 µM; in experiment [5], > 100 µM; in experiment [6], 57.4 µM. For the same molecule, the values for the TGI in experiment [8], in experiment [9] and in experiment [10] were 17.7 µM, 56.3 µM and 86.1 µM, respectively.
As for `O=C(/C=C/c1ccc(O)c(O)c1)OCCOC(=O)/C=C/c1ccc(O)c(O)c1`, the TGI in [1] was 52.6 µM; in [2], > 100 µM; in experiment [3], 41.8 µM; in experiment [4], 47.5 µM; in experiment [5], > 100 µM; in [6], > 100 µM. The TGI in experiment [8] was 46.9 µM; in [9], 45.8 µM; in experiment [10], 58.9 µM.
With `Cc1cc(=Nc2ccc3c(c2)c(N)cc(C)[n+]3C)nc(N)n1C`, the TGI in [1], in [2], in [3], in [4], in experiment [5] and in experiment [6] was > 100 µM each time. Besides, the TGI in experiment [8], in experiment [9] and in [10] was > 100 µM each time.
`COc1cc2c(c(OC)c1OC)C(=O)CC2N` (stereo not given): the TGI in [1], in experiment [2], in experiment [3], in experiment [4], in experiment [5] and in [6] was > 100 µM in each case. Further, the TGI in experiment [7], in [8] and in [9] was > 100 µM in each case.
Turning to `CN1OC(=O)N(C)C1c1ccccc1` (stereo not given), the TGI in experiment [1], in experiment [2], in [3], in experiment [4], in [5] and in experiment [6] was > 100 µM each time. The TGI in experiment [7], in experiment [8] and in [9] was > 100 µM throughout.
In the case of `Nc1ccn(C2OC(COP(=O)(O)Oc3ccccc3)C(O)C2O)c(=O)n1` (stereo not given), the TGI in [1], in experiment [2], in [3], in [4], in experiment [5] and in experiment [6] was > 100 µM throughout. For the same molecule, the TGI in [7], in experiment [8] and in experiment [9] was > 100 µM throughout.
With `Cc1ccc(/C=N/Nc2ncccn2)s1`, the TGI in [1], in experiment [2], in [3], in experiment [4], in [5] and in experiment [6] was > 100 µM each time. The TGI in [8] and in [9] was > 100 µM in each case.
Regarding `Cc1n[nH]c(=O)n1N=C(c1ccccc1)c1ccccc1`, the TGI in [2], in experiment [3], in [4], in experiment [5], in [6] and in experiment [8] was > 100 µM each time. Moreover, in [9], the TGI is > 100 µM.
For `C[C@@H]1CCC2[C@@H](C)C(=O)O[C@@H]3C4C[C@@H]1[C@@]23OO[C@@]4(C)O` (stereo not given in full), the TGI in [1] is > 100 µM; in experiment [2] it was > 100 µM; in experiment [3], > 100 µM; in experiment [4] it was 94 µM; in experiment [5] it was > 100 µM; in experiment [6] it was > 100 µM. The TGI in experiment [8], in experiment [9] and in [10] was > 100 µM in each case.
For the molecule `c1ccc(-c2cc(-c3cc(-c4ccccc4)n(-c4ccccc4)n3)nn2-c2ccccc2)cc1`, the TGI in [1], in [2], in experiment [3], in [4], in [5] and in [8] was > 100 µM in each case. For the same molecule, in experiment [9], the TGI was > 100 µM.
